Values of other authors as cited in patent US6071521A, “Pharmaceutical composition having an antitumor activity and a process for preparation thereof” (priority 1989, dated 2000).

Conditions: water, alcohol, chloroform, and chlorinated ethylene

C=C1C=CC(=O)O1 [protoanemonin, Protoanemonin]
solubility: dissolved in water, alcohol, chloroform, and chlorinated ethylene
